Measured values from patent US6667313B1, “8-substituted-6-triflouromethyl-9-pyrido [3,2-G] quinoline compounds as androgen receptor modulators” (Ligand Pharmaceuticals Inc., priority 1999, dated 2003).
Read-outs that look alike come from different tables or passages of the source.

Tests used:
human AR [1] = target: T1, human AR (Homo sapiens, UniProt P10275); assay: AR whole cell competitive binding assay (3H-DHT), COS-1 cells
T1 sequence (P10275 1-920): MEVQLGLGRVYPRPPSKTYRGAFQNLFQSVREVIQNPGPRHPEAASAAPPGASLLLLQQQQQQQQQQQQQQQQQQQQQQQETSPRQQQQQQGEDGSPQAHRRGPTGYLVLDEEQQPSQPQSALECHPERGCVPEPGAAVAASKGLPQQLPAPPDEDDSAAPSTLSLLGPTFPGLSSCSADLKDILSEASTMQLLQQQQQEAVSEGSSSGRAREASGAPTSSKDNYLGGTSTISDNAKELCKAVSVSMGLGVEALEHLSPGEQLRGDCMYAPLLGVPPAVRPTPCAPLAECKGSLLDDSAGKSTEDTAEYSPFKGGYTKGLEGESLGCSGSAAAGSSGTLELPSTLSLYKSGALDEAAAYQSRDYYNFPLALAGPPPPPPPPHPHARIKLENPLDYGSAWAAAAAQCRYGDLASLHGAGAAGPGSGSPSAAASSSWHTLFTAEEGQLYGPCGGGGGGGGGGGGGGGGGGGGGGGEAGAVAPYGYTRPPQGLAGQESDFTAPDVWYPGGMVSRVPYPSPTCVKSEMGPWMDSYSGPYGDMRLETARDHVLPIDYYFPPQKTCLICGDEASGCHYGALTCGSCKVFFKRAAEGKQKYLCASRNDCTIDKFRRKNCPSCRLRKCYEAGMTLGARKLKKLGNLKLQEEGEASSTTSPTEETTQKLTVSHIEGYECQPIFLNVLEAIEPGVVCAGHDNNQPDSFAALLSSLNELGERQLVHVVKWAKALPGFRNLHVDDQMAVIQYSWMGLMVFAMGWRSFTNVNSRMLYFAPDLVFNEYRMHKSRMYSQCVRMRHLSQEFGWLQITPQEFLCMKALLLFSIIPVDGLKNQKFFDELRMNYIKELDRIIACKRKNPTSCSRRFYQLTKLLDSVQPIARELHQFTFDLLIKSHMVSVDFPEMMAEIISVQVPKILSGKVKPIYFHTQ
Description: AR Binding: For the whole cell binding assay, COS-1 cells in 96-well microtiter plates containing DMEM-10% FBS were transfected as described above with the following plasmid DNA: pRShAR (2 ng/well), pRS-β-Gal (50 ng/well) and pGEM (48 ng/well). Six hours after transfection, media was removed, the cells were washed with PBS and fresh media was added. The next day, the media was changed to DMEM-serum free to remove any endogenous ligand that might be complexed with the receptor in the cells.
Three replicates were used for each sample. […] The remaining media was removed, the cells were washed three times with PBS to remove unbound ligand, and cells were lysed with a Triton X-100-based buffer.
For the saturation analyses, the difference between the total binding and the nonspecific binding, normalized by the β-Gal rate, was defined as specific binding.
After correcting for non-specific binding, IC50 values were determined. […] The IC50 value was determined graphically from a log-logit plot of the data. The Ki values were determined by application of the Cheng-Prusoff equivuation to the IC50 values, the labeled ligand concentration and the Kd of the labeled ligand.

human AR [2] = target: T1, human AR; assay: Co-transfection assay, AR agonist, CV-1 cells; assay type: cell-based; details: for AR Agonist CV-1 Cells Efficacy (%): percent maximal response relative to reference agonist DHT
Text: (§1) The reporter plasmid, MTV-LUC, contains the cDNA for firefly luciferase (LUC) under control of themouse mammary tumor virus (MTV) long terminal repeat, a conditional promoter containing an androgen response element. See e.g., Berger et al. supra. In addition, pRS-β-Gal, coding for constitutive expression of E. coli β-galactosidase (β-Gal), was included as an internal control for evaluation of transfection efficiency and compound toxicity.
(§2) Three to four replicates were used for each sample.
(§3) After 40 hours, the cells were washed with PBS, lysed with a Triton X-100-based buffer and assayed for LUC and β-Gal activities using a luminometer or spectrophotometer, respectively. For each replicate, the normalized response (NR) was calculated as:
(§4) where β-Gal rate=β-Ga·1×10^−5/β-Gal incubation time.

human AR [3] = target: T1, human AR; assay: Co-transfection assay, AR antagonist, CV-1 cells (in presence of DHT); assay type: cell-based; details: for AR Antagonist CV-1 Cells Efficacy (%): percent maximal inhibition, DHT at EC50
Text: as §1, §2, §3, §4

Structure (SMILES) | Ki (human AR [1]) [nM] | EC50 (human AR [2]) [nM] | AR Agonist CV-1 Cells Efficacy (%) (human AR [2]) | IC50 (human AR [3]) [nM] | AR Antagonist CV-1 Cells Efficacy (%) (human AR [3]) | Ki (human AR [1]; COS-1 cells, 1 nM 3H-DHT, Cheng-Prusoff, read-out: AR Binding KI) [nM] | IC50 (human AR [3]; read-out: AR Antagonist CV-1 Cells Potency) [nM]
CCC1CCNc2cc3nc(Cl)cc(C(F)(F)F)c3cc21 (racemic) [Compound 108, (R/S)-8-Chloro-4-ethyl-1,2,3,4-tetrahydro-6-trifluoromethyl-9-pyrido[3,2-g]guinoline] | 81 ± 13 | 73 ± 12 | 36 ± 5 | 50 ± 27 | 28 ± 8 |  | 
CCC1CCNc2cc3nc(Cl)c(F)c(C(F)(F)F)c3cc21 (racemic) [Compound 109, (R/S)-8-Chloro-4-ethyl-7-fluoro-1,2,3,4-tetrahydro-6-trifluoromethyl-9-pyrido[3,2-g]guinoline] | 119 ± 65 | 89 ± 26 | 35 ± 12 | 39 ± 23 | 51 ± 9 |  | 
CCC1CCNc2cc3nc(F)cc(C(F)(F)F)c3cc21 (racemic) [Compound 116, (R/S)-4-Ethyl-8-fluoro-1,2,3,4-tetrahydro-6-trifluoromethyl-9-pyrido[3,2-g]quinoline] | 5 | 37 ± 9 | 60 ± 4 |  | 0 |  | 
CCC1CCNc2cc3nc(Br)cc(C(F)(F)F)c3cc21 (racemic) [Compound 121, (R/S)-8-Bromo-4-ethyl-1,2,3,4-tetrahydro-6-trifluoromethyl-9-pyrido[3,2-g]quinoline] | 55 | 22 ± 14 | 53 ± 15 |  | 8 ± 12 |  | 
CCC1CCNc2cc3nccc(C(F)(F)F)c3cc21 (racemic) [Compound 125, (R/S)-4-Ethyl-1,2,3,4-tetrahydro-6-trifluoromethyl-9-pyrido[3,2-g]quinoline] | 93 |  | 9 ± 7 | 56 ± 17 | 93 ± 1 |  | 
CCC1CCNc2cc3nc(C#N)cc(C(F)(F)F)c3cc21 (racemic) [Compound 129, (R/S)-8-Cyano-4-ethyl-1,2,3,4-tetrahydro-6-trifluoromethyl-9-pyrido[3,2-g]quinoline] | 21 |  |  | 15 ± 5 | 56 ± 25 |  | 
CCC1CCN(C)c2cc3nc(C#N)cc(C(F)(F)F)c3cc21 (racemic) [Compound 130, (R/S)-8-Cyano-4-ethyl-1,2,3,4-tetrahydro-1-methyl-6-trifluoromethyl-9-pyrido[3,2-g]quinoline] | 787 |  | 2 | 782 ± 546 | 89 ± 1 |  | 
CC1(C)CCc2cc3c(cc2N1)N(C(=O)c1ccccc1)C(C#N)C=C3C(F)(F)F (racemic) [Compound 131, (R/S)-9-Benzoyl-8-cyano-1,2,3,4,8,9-hexahydro-2,2-dimethyl-6-trifluoromethyl-9-pyrido[3,2-g]quinoline] | > 1000 |  | 0 | 63 | 91 |  | 
Cc1ccc(C(=O)N2c3cc4c(cc3C(C(F)(F)F)=CC2C#N)CCC(C)(C)N4)cc1 (racemic) [Compound 132, (R/S)-8-Cyano-1,2,3,4,8,9-hexahydro-2,2-dimethyl-9-p-toluoyl-6-trifluoromethyl-9-pyrido[3,2-g]quinoline] |  |  |  |  | 89 | 863 | 147
C[S+]([O-])c1nc2cc3c(cc2c(C(F)(F)F)c1F)CCC(C)(C)N3 (racemic) [Compound 137, (R/S)-7-Fluoro-1,2,3,4-tetrahydro-2,2-dimethyl-6-trifluoromethyl-8-methylsulfinyl-9-pyrido[3,2-g]quinoline] | > 1000 |  | 10 | 1340 | 84 |  | 
CCC1CCNc2cc3nc(SC)cc(C(F)(F)F)c3cc21 (racemic) [Compound 142, (R/S)-4-Ethyl-1,2,3,4-tetrahydro-8-methylthio-6-trifluoromethyl-9-pyrido[3,2-g]quinoline] | 307 | 221 ± 108 | 30 ± 12 | 131 ± 64 | 60 ± 7 |  | 
CCC1CCNc2cc3nc([S+](C)[O-])cc(C(F)(F)F)c3cc21 (racemic) [Compound 143, (R/S)-4-Ethyl-1,2,3,4-tetrahydro-8-methylsulfinyl-6-trifluoromethyl-9-pyrido[3.2-g]guinoline] | 34 | 33 ± 3 | 37 ± 9 | 4690 | 59 |  | 
CCC1CCNc2cc3nc(C(F)(F)F)cc(C(F)(F)F)c3cc21 (racemic) [Compound 149, (R/S)-4-Ethyl-1,2,3,4-tetrahydro-6,8-di(trifluoromethyl)-9-pyrido[3,2-g]quinoline] | 301 |  |  | 117 ± 31 |  |  | 
Cc1c2c(cc3c(C(F)(F)F)c(F)c(Cl)nc13)C(C)CC(C)(C)N2 (centres unmarked) [Compound 106, 8-Chloro-7-fluoro-1,2,3,4-tetrahydro-2,2,4,10-tetramethyl-6-trifluoro-methyl-9-pyrido[3,2-g]quinoline] | > 1000 |  | 4 ± 2 | 550 ± 15 | 77 ± 6 |  | 
CC1(C)CCc2cc3c(C(F)(F)F)c(F)c(Cl)nc3cc2N1 [Compound 107, 8-Chloro-7-fluoro-1,2,3,4-tetrahydro-2,2-dimethyl-6-trifluoromethyl-9-pyrido[3,2-g]quinoline] | 103 | 1040 | 29 | 17 ± 3 | 61 ± 8 |  | 
CC1(C)CCc2cc3c(C(F)(F)F)c(F)c(F)nc3cc2N1 [Compound 113, 7,8-Difluoro-1,2,3,4-tetrahydro-2,2-dimethyl-6-trifluoromethyl-9-pyrido[3,2-g]quinoline] | 152 |  | 12 | 500 | 37 |  | 
Cc1c2c(cc3c(C(F)(F)F)c(F)c(F)nc13)C(C)CC(C)(C)N2 (centres unmarked) [Compound 115, 7,8-Difluoro-1,2,3,4-tetrahydro-2,2,4,10-tetramethyl-6-trifluoromethyl-9-pyrido[3,2-g]quinoline] | > 1000 |  | 0 | 1140 | 26 |  | 
CC1(C)CCc2cc3c(C(F)(F)F)c(F)c(Br)nc3cc2N1 [Compound 119, 8-Bromo-7-fluoro-1,2,3,4-tetrahydro-2,2-dimethyl-6-trifluoromethyl-9-pyrido[3,2-g]quinoline] | 91 ± 68 |  | 6 | 47 ± 27 | 73 ± 7 |  | 
CC1(C)CCc2cc3c(C(F)(F)F)c(F)cnc3cc2N1 [Compound 126, 7-Fluoro-1,2,3,4-tetrahydro-2,2-dimethyl-6-trifluoromethyl-9-pyrido[3,2-g]quinoline] | 58 |  | 3 ± 5 | 181 ± 73 | 93 ± 4 |  | 
